# Results: patent US7235379B2, “Method and medium for the detection/identification of microorgranisms with esterase activity” (Bio Merieux, priority 2000, dated 2007)
# Values joined by “and” are separate entries in the source; they are usually repeats but may differ in a detail not shown here. Equal values may be shown once. Where a name gives a salt, the structure may show the parent alone. Read-outs that look alike come from different tables or passages of the source.
# Assays:
# [1] = test system: bacterial strains exhibiting an esterase activity; settings: between 2 and 16 ml/l, more precisely between 4 and 8 ml/l
# Procedure: (§1) The esterase substrate tested is 5-bromo-3-indolyl nonanoate. A 40 g/l stock solution of substrate is prepared in a mixture of 40% dimethyl sulfoxide and 60% Tween 20. A sufficient volume is added to a supercooled MacConkey medium (without neutral red) to give a substrate concentration of 500 mg/l.
# (§2) Microorganisms originating from the Applicant's collection were inoculated onto this medium from a 0.5 McFarland suspension by isolation in three quadrants. The dishes were incubated at 37° C. for 48 hours. The colonies formed were examined visually after 24 and 48 hours of incubation. The coloration of these colonies and the intensity of this coloration were noted.
# [2] = test system: Acinetobacter calcoaceticus 034; assay: Ex.1 colony coloration, 5-bromo-3-indolyl nonanoate, DMSO/Tween 20, MacConkey; type: cell-based; as to intensity of coloration: key: 0: no activity; 0.1: trace of coloration; 0.5: very pale coloration; 1: distinct coloration of low intensity; 2: clear coloration of medium intensity; 3: intense coloration; 4: very intense coloration
# Salmonella typhi 118 = test system: Salmonella typhi 118
# Procedure: as §1, §2
# (§3) Note: In the above Examples, the numbers following the strains correspond to the number of each strain referenced in the Applicant's collection. The intensity of coloration corresponds to an arbitrary scale defined as follows: […]
# [3] = test system: Salmonella paratyphi A 006
# Procedure: as §1, §2, §3
# Salmonella spp. 017 = test system: Salmonella spp. 017
# Procedure: as §1, §2, §3
# [4] = test system: Salmonella typhimurium 010; assay: Ex.2 colony coloration, 5-bromo-3-indolyl nonanoate, methanol/bile salts, MacConkey; type: cell-based; as to intensity of coloration: key: 0: no activity; 0.1: trace of coloration; 0.5: very pale coloration; 1: distinct coloration of low intensity; 2: clear coloration of medium intensity; 3: intense coloration; 4: very intense coloration
# [5] = test system: Gram-positive bacteria or yeasts
# Procedure: The esterase substrate tested is 5-bromo-4-chloro-3-indolyl nonanoate. A 40 g/l stock solution of substrate is prepared in a mixture of 40% dimethyl sulfoxide and 60% Tween 20. A sufficient volume is added to a supercooled MacConkey medium (without neutral red) to give a substrate concentration of 250 mg/l.
# as §2
# [6] = test system: bacterial strains exhibiting an esterase activity; settings: between 2 and 16 ml/l, more precisely between 4 and 8 ml/l; remark: listed apart in the source
# Procedure: The esterase substrate tested is 5-bromo-3-indolyl nonanoate. A 25 g/l stock solution of substrate is prepared in methanol to which 5 g/l of bile salts have been added. A sufficient volume is added to a supercooled MacConkey medium (without neutral red) to give a substrate concentration of 500 mg/l.
# as §2
# Candida albicans 033 = assay: Ex.3 colony coloration, 5-bromo-4-chloro-3-indolyl nonanoate 250 mg/l, DMSO/Tween 20; type: cell-based; also: key: 0: no activity; 0.1: trace of coloration; 0.5: very pale coloration; 1: distinct coloration of low intensity; 2: clear coloration of medium intensity; 3: intense coloration; 4: very intense coloration
# [7] = test system: Salmonella enteritidis 002; assay: Ex.1 colony coloration, 5-bromo-3-indolyl nonanoate, DMSO/Tween 20, MacConkey; type: cell-based
# [8] = test system: Listeria monocytogenes 079; assay: Ex.3 colony coloration, 5-bromo-4-chloro-3-indolyl nonanoate 250 mg/l, DMSO/Tween 20; type: cell-based; also: key: 0: no activity; 0.1: trace of coloration; 0.5: very pale coloration; 1: distinct coloration of low intensity; 2: clear coloration of medium intensity; 3: intense coloration; 4: very intense coloration
# Salmonella arizonae 018 = assay: Ex.2 colony coloration, 5-bromo-3-indolyl nonanoate, methanol/bile salts, MacConkey; type: cell-based
structure (smiles),measurement,setting,value
"CCCCC(CC)CCC(CC(C)C)OS(=O)(=O)O (centres unmarked) [Tergitol 4, 7-ethyl-2-methyl-4-undecanoate hydrogensulfate or its sodium salt]",effect on intensity of coloration,[1],significantly increases the intensity of coloration
same,color,"[2]; 2 ml/l, 24 h",gray
same,intensity of coloration,"[2]; 2 ml/l, 24 h",2
same,color,"[2]; 2 ml/l, 48 h",gray
same,intensity of coloration,"[2]; 2 ml/l, 48 h",3
same,color,"[2]; 4 ml/l, 24 h",gray
same,intensity of coloration,"[2]; 4 ml/l, 24 h",3
same,color,"[2]; 4 ml/l, 48 h",gray
same,intensity of coloration,"[2]; 4 ml/l, 48 h",3
same,color,"[2]; 8 ml/l, 24 h",gray
same,intensity of coloration,"[2]; 8 ml/l, 24 h",3
same,color,"[2]; 8 ml/l, 48 h",gray
same,intensity of coloration,"[2]; 8 ml/l, 48 h",4
same,color,"[2]; 16 ml/l, 24 h",gray
same,intensity of coloration,"[2]; 16 ml/l, 24 h",0.5
same,color,"[2]; 16 ml/l, 48 h",gray
same,intensity of coloration,"[2]; 16 ml/l, 48 h",0.5
same,color,Salmonella typhi 118,gray
same,intensity of coloration,Salmonella typhi 118; sodium salt,3 and 2 and 3.5
same,color,"[3]; 2 ml/l, 24 h",gray
same,intensity of coloration,"[3]; 2 ml/l, 24 h",2
same,color,"[3]; 2 ml/l, 48 h",gray
same,intensity of coloration,"[3]; 2 ml/l, 48 h",2
same,color,"[3]; 4 ml/l, 24 h",gray
same,intensity of coloration,"[3]; 4 ml/l, 24 h",2
same,color,"[3]; 4 ml/l, 48 h",gray
same,intensity of coloration,"[3]; 4 ml/l, 48 h",2.5
same,color,"[3]; 8 ml/l, 24 h",gray
same,intensity of coloration,"[3]; 8 ml/l, 24 h",3
same,color,"[3]; 8 ml/l, 48 h",gray
same,intensity of coloration,"[3]; 8 ml/l, 48 h",3
same,color,"[3]; 16 ml/l, 24 h",gray
same,intensity of coloration,"[3]; 16 ml/l, 24 h",2
same,color,"[3]; 16 ml/l, 48 h",gray
same,intensity of coloration,"[3]; 16 ml/l, 48 h",2
same,color,"Salmonella spp. 017; 2 ml/l, 24 h",gray
same,intensity of coloration,"Salmonella spp. 017; 2 ml/l, 24 h",1
same,color,"Salmonella spp. 017; 2 ml/l, 48 h",gray
same,intensity of coloration,"Salmonella spp. 017; 2 ml/l, 48 h",3
same,color,"Salmonella spp. 017; 4 ml/l, 24 h",gray
same,intensity of coloration,"Salmonella spp. 017; 4 ml/l, 24 h",1.5
same,color,"Salmonella spp. 017; 4 ml/l, 48 h",gray
same,intensity of coloration,"Salmonella spp. 017; 4 ml/l, 48 h",3.5
same,color,"Salmonella spp. 017; 8 ml/l, 24 h",gray
same,intensity of coloration,"Salmonella spp. 017; 8 ml/l, 24 h",2
same,color,"Salmonella spp. 017; 8 ml/l, 48 h",gray
same,intensity of coloration,"Salmonella spp. 017; 8 ml/l, 48 h",3
same,color,"Salmonella spp. 017; 16 ml/l, 24 h",gray
same,intensity of coloration,"Salmonella spp. 017; 16 ml/l, 24 h",1
same,color,"Salmonella spp. 017; 16 ml/l, 48 h",gray
same,intensity of coloration,"Salmonella spp. 017; 16 ml/l, 48 h",2
same,color,"[4]; 2 ml/l, 24 h",gray
same,intensity of coloration,"[4]; 2 ml/l, 24 h",2
same,color,"[4]; 2 ml/l, 48 h",gray
same,intensity of coloration,"[4]; 2 ml/l, 48 h",2
same,color,"[4]; 4 ml/l, 24 h",gray
same,intensity of coloration,"[4]; 4 ml/l, 24 h",2
same,color,"[4]; 4 ml/l, 48 h",gray
same,intensity of coloration,"[4]; 4 ml/l, 48 h",3
same,color,"[4]; 8 ml/l, 24 h",gray
same,intensity of coloration,"[4]; 8 ml/l, 24 h",3
same,color,"[4]; 8 ml/l, 48 h",gray
same,intensity of coloration,"[4]; 8 ml/l, 48 h",3
same,color,"[4]; 16 ml/l, 24 h",gray
same,intensity of coloration,"[4]; 16 ml/l, 24 h",3
same,color,"[4]; 16 ml/l, 48 h",gray
same,intensity of coloration,"[4]; 16 ml/l, 48 h",3.5
same,effect on the expression of the esterase activity,[5]; 0.001 to 1 ml/l tested,positive effect
same,growth on culture medium,[5]; excessive Tergitol 4 concentrations,cannot develop on a culture medium
same,effect on intensity of coloration,[6],significantly increases the intensity of coloration
same,intensity of coloration,"Candida albicans 033; 0.001 ml/l, 24 h",0.5
same,intensity of coloration,"Candida albicans 033; 0.001 ml/l, 48 h",3
same,intensity of coloration,"Candida albicans 033; 0.01 ml/l, 24 h",0.5
same,intensity of coloration,"Candida albicans 033; 0.01 ml/l, 48 h",3
same,intensity of coloration,"Candida albicans 033; 0.1 ml/l, 24 h",0.5
same,intensity of coloration,"Candida albicans 033; 0.1 ml/l, 48 h",3
same,intensity of coloration,"Candida albicans 033; 1 ml/l (1st col), 24 h",0.5
same,intensity of coloration,"Candida albicans 033; 1 ml/l (1st col), 48 h",3
same,intensity of coloration,"Candida albicans 033; 1 ml/l (2nd col), 24 h",0.5
same,intensity of coloration,"Candida albicans 033; 1 ml/l (2nd col), 48 h",3
same,color,"[7]; 2 ml/l, 24 h",gray
same,intensity of coloration,"[7]; 2 ml/l, 24 h",2
same,color,"[7]; 2 ml/l, 48 h",gray
same,intensity of coloration,"[7]; 2 ml/l, 48 h",2
same,color,"[7]; 4 ml/l, 24 h",gray
same,intensity of coloration,"[7]; 4 ml/l, 24 h",3
same,color,"[7]; 4 ml/l, 48 h",gray
same,intensity of coloration,"[7]; 4 ml/l, 48 h",3
same,color,"[7]; 8 ml/l, 24 h",gray
same,intensity of coloration,"[7]; 8 ml/l, 24 h",3.5
same,color,"[7]; 8 ml/l, 48 h",gray
same,intensity of coloration,"[7]; 8 ml/l, 48 h",3.5
same,color,"[7]; 16 ml/l, 24 h",gray
same,intensity of coloration,"[7]; 16 ml/l, 24 h",3.5
same,color,"[7]; 16 ml/l, 48 h",gray
same,intensity of coloration,"[7]; 16 ml/l, 48 h",3.5
same,intensity of coloration,"[8]; 0.001 ml/l, 24 h",2
same,intensity of coloration,"[8]; 0.001 ml/l, 48 h",3
same,intensity of coloration,"[8]; 0.01 ml/l, 24 h",3
same,intensity of coloration,"[8]; 0.01 ml/l, 48 h",3
same,intensity of coloration,"[8]; 0.1 ml/l, 24 h",2
same,intensity of coloration,"[8]; 0.1 ml/l, 48 h",3
same,intensity of coloration,"[8]; 1 ml/l (1st col), 24 h",2
same,intensity of coloration,"[8]; 1 ml/l (1st col), 48 h",3
same,intensity of coloration,"[8]; 1 ml/l (2nd col), 24 h",2
same,intensity of coloration,"[8]; 1 ml/l (2nd col), 48 h",3
same,color,"Salmonella arizonae 018; 2 ml/l, 24 h",gray
same,intensity of coloration,"Salmonella arizonae 018; 2 ml/l, 24 h",2.5
same,color,"Salmonella arizonae 018; 2 ml/l, 48 h",gray
same,intensity of coloration,"Salmonella arizonae 018; 2 ml/l, 48 h",3
same,color,"Salmonella arizonae 018; 4 ml/l, 24 h",gray
same,intensity of coloration,"Salmonella arizonae 018; 4 ml/l, 24 h",2
same,color,"Salmonella arizonae 018; 4 ml/l, 48 h",gray
same,intensity of coloration,"Salmonella arizonae 018; 4 ml/l, 48 h",2.5
same,color,"Salmonella arizonae 018; 8 ml/l, 24 h",gray
same,intensity of coloration,"Salmonella arizonae 018; 8 ml/l, 24 h",0.5
same,color,"Salmonella arizonae 018; 8 ml/l, 48 h",gray
same,intensity of coloration,"Salmonella arizonae 018; 8 ml/l, 48 h",1.5
same,color,"Salmonella arizonae 018; 16 ml/l, 24 h",gray
same,intensity of coloration,"Salmonella arizonae 018; 16 ml/l, 24 h",0.5
same,color,"Salmonella arizonae 018; 16 ml/l, 48 h",gray
same,intensity of coloration,"Salmonella arizonae 018; 16 ml/l, 48 h",2
